{"source": "paper PMC12655637", "about": "“Design, Synthesis, and Mechanistic Study of Novel Ciprofloxacin/Thiazole Chalcone Hybrids as Potential Anticancer Agents” (Pharmaceuticals, 2025)", "key": {"[1]": {"tested_on": "tubulin polymerization", "parameters": "method as in PMID 40308265", "conditions": "read-out: IC50 inhibition of tubulin polymerization; cited from earlier work"}, "[2]": {"experiment": "In vitro cytotoxicity against normal cell line WI 38", "format": "cell-based", "conditions": "human, WI-38 normal cell line; ± SEM", "source_text": "Detailed results of cytotoxicity of compounds 4b and 4d against normal cell\nBlank CC Sample No. 4b/WI38 sample no. 4d/WI38\nconc. viability conc. viability"}, "[3]": {"tested_on": "non-small-cell lung cancer A459", "parameters": "method as in PMID 27555286", "conditions": "A459 ref 30; cited from earlier work"}, "[4]": {"tested_on": "human melanoma LOX IMVI cancer cell line", "parameters": "method as in PMID 39406816", "conditions": "LOX IMVI ref 33; cited from earlier work"}, "[5]": {"tested_on": "renal cancer cell line UO-31", "parameters": "method as in PMID 29547830", "conditions": "UO-31 ref 31; cited from earlier work"}, "[6]": {"tested_on": "RPMI-8226", "parameters": "method as in PMID 39338317", "conditions": "RPMI-8226 ref 14; cited from earlier work"}, "[7]": {"tested_on": "CCRF-CEM", "parameters": "method as in PMID 39338317", "conditions": "CCRF-CEM ref 14; cited from earlier work"}, "[8]": {"tested_on": "OVCAR-3", "parameters": "method as in PMID 39338317", "conditions": "OVCAR-3 ref 14; cited from earlier work"}, "[9]": {"tested_on": "MDA-MB-468", "parameters": "method as in PMID 39338317", "conditions": "MDA-MB-468 ref 14; cited from earlier work"}, "[10]": {"tested_on": "leukemia subpanel", "parameters": "method as in PMID 24090914", "conditions": "leukemia subpanel ref 26; cited from earlier work"}, "[11]": {"tested_on": "MCF-7", "parameters": "method as in PMID 40308265", "conditions": "MCF-7 ref 32; cited from earlier work"}, "[12]": {"tested_on": "MDAMB-231", "parameters": "method as in PMID 40308265", "conditions": "MDAMB-231 ref 32; cited from earlier work"}, "[13]": {"tested_on": "HCT-116", "parameters": "method as in PMID 40308265", "conditions": "HCT-116 ref 32; cited from earlier work"}, "[14]": {"tested_on": "PC-3", "parameters": "method as in PMID 40308265", "conditions": "PC-3 ref 32; cited from earlier work"}}, "data": [{"smiles": "COc1ccc(/C=C\\c2cc(OC)c(OC)c(OC)c2)cc1O", "note": "[CA-4]", "values": [{"measurement": "IC50", "setting": "[1]", "value": 8.33, "unit": "µM"}]}, {"smiles": "COc1cccc2c1C(=O)c1c(O)c3c(c(O)c1C2=O)C[C@@](O)(C(=O)CO)C[C@@H]3O[C@H]1C[C@H](N)[C@H](O)[C@H](C)O1", "note": "[Doxorubicin, doxorubicin, reference compound]", "values": [{"measurement": "IC50", "setting": "[2]", "value": "19.8 ± 0.68", "unit": "µM"}]}, {"smiles": "O=C(CN1CCN(c2cc3c(cc2F)c(=O)c(C(=O)O)cn3C2CC2)CC1)Nc1ccc(Cl)cc1", "note": "[III]", "values": [{"measurement": "IC50", "setting": "[3]", "value": 14.8, "unit": "µM"}]}, {"smiles": "O=C(O)c1cn(C2CC2)c2cc(N3CCN(C(=O)CCCN4C(=O)S/C(=C\\c5ccc(F)cc5)C4=O)CC3)c(F)cc2c1=O", "note": "[IIX]", "values": [{"measurement": "IC50", "setting": "[4]", "value": 25.4, "unit": "µM"}]}, {"smiles": "O=C(CN1CCN(c2cc3c(cc2F)c(=O)c(C(=O)O)cn3C2CC2)CC1)N/N=C/c1ccccc1O", "note": "[IV]", "values": [{"measurement": "IC50", "setting": "[5]", "value": 0.75, "unit": "µM"}]}, {"smiles": "O=C(/C=C/c1ccc(Cl)cc1)c1c[nH]c(=S)s1", "note": "[VII]", "values": [{"measurement": "IC50", "setting": "[6]", "value": 2.4, "unit": "µM"}, {"measurement": "IC50", "setting": "[7]", "value": 2.88, "unit": "µM"}, {"measurement": "IC50", "setting": "[8]", "value": 2.82, "unit": "µM"}, {"measurement": "IC50", "setting": "[9]", "value": 2.51, "unit": "µM"}]}, {"smiles": "COc1cc(/C=C/C(=O)c2ccc(NC(=O)N3CCN(c4cc5c(cc4F)c(=O)c(C(=O)O)cn5C4CC4)CC3)cc2)cc(OC)c1OC", "note": "[VI]", "values": [{"measurement": "Selectivity ratio", "setting": "[10]", "value": 6.71}]}, {"smiles": "COc1cc(/C=C/C(=O)c2sc(SCC(=O)Nc3nc(-c4ccccc4)cs3)nc2C)cc(OC)c1OC", "note": "[V]", "values": [{"measurement": "IC50", "setting": "[11]", "value": 4, "unit": "µM"}, {"measurement": "IC50", "setting": "[12]", "value": 6, "unit": "µM"}, {"measurement": "IC50", "setting": "[13]", "value": 8, "unit": "µM"}, {"measurement": "IC50", "setting": "[1]", "value": 2.69, "unit": "µM"}, {"measurement": "IC50", "setting": "[14]", "value": 7, "unit": "µM"}]}]}
